Data: publication PMC9354042, “Discovery of BRAF/HDAC Dual Inhibitors Suppressing Proliferation of Human Colorectal Cancer Cells” (Frontiers in Chemistry, 2022)

Key:
HDAC8 = biological target: T1, HDAC8 (Homo sapiens, UniProt Q9BY41); experiment: HDAC8 fluorescent-based enzymatic activity assay; assay type: biochemical; conditions: for fold more potent than 14b against HDAC8: HDAC8 IC50 relative to 14b; for IC50: Supplementary Table 1, read-out: HDAC8 Enzymatic IC50
T1 construct: purchased BPS Bioscience
T1 sequence (Q9BY41 1-377): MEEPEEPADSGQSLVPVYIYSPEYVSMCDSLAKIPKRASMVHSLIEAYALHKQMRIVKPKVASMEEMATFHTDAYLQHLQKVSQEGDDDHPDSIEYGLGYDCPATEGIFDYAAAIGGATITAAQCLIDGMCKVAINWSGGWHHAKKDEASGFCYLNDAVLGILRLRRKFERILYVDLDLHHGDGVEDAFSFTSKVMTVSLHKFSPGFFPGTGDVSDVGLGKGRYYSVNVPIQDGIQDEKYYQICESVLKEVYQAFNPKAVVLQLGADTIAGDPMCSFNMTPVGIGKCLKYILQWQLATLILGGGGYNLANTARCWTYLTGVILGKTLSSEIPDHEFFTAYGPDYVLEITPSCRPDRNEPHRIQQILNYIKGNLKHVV
Protocol: (§1) The purified recombinant Human HDACs and their corresponding substrates were purchased from BPS Bioscience (BPS Bioscience Inc., United States). The assays were carried out in a 384-well format using the BPS fluorescent–based HDAC activity assay according to the manufacturer’s protocol. In brief, […] of the HDAC reaction mixture was composed of HDAC assay buffer, […] BSA, serial diluted test compounds, appropriate concentration of HDACs, and […] fluorogenic substrate, the mixture was incubated at 37°C for 60 min, and then stopped by the addition of developer containing trypsin and TSA. After 20 min of incubation, the fluorescence was detected at the excitation wavelength of 360 nm and the emission wavelength of 460 nm using the EnVision Multilabel Reader (PerkinElmer Inc., United States). The analytical software, GraphPad Prism 5.0 (GraphPad Software, Inc., United States) was used to generate IC50 value via non-linear regression analysis.

HDAC1 = biological target: T2, HDAC1 (Homo sapiens, UniProt Q13547); experiment: HDAC1 fluorescent-based enzymatic activity assay; assay type: biochemical; conditions: Table 1; read-out: Enzymatic IC50 HDAC1
T2 construct: purchased BPS Bioscience
T2 sequence (Q13547 whole entry): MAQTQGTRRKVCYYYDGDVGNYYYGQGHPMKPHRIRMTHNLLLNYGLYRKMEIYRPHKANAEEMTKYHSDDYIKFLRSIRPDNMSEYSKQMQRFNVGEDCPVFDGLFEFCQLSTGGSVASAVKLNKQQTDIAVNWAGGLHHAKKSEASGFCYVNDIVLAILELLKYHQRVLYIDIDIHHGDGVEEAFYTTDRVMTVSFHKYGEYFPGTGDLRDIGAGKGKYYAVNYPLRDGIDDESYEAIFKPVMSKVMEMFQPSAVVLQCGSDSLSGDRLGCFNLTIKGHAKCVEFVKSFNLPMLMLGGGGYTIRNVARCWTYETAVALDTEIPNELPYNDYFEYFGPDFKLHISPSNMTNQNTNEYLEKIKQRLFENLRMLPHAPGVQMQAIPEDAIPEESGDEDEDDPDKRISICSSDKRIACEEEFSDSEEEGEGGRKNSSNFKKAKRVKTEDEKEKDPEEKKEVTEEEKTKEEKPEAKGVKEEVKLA
Protocol: as §1

HDAC6 = biological target: T3, HDAC6 (Homo sapiens, UniProt Q9UBN7); experiment: HDAC6 fluorescent-based enzymatic activity assay; assay type: biochemical; conditions: Table 1; read-out: Enzymatic IC50 HDAC6
T3 construct: purchased BPS Bioscience
T3 sequence (Q9UBN7 1-1215): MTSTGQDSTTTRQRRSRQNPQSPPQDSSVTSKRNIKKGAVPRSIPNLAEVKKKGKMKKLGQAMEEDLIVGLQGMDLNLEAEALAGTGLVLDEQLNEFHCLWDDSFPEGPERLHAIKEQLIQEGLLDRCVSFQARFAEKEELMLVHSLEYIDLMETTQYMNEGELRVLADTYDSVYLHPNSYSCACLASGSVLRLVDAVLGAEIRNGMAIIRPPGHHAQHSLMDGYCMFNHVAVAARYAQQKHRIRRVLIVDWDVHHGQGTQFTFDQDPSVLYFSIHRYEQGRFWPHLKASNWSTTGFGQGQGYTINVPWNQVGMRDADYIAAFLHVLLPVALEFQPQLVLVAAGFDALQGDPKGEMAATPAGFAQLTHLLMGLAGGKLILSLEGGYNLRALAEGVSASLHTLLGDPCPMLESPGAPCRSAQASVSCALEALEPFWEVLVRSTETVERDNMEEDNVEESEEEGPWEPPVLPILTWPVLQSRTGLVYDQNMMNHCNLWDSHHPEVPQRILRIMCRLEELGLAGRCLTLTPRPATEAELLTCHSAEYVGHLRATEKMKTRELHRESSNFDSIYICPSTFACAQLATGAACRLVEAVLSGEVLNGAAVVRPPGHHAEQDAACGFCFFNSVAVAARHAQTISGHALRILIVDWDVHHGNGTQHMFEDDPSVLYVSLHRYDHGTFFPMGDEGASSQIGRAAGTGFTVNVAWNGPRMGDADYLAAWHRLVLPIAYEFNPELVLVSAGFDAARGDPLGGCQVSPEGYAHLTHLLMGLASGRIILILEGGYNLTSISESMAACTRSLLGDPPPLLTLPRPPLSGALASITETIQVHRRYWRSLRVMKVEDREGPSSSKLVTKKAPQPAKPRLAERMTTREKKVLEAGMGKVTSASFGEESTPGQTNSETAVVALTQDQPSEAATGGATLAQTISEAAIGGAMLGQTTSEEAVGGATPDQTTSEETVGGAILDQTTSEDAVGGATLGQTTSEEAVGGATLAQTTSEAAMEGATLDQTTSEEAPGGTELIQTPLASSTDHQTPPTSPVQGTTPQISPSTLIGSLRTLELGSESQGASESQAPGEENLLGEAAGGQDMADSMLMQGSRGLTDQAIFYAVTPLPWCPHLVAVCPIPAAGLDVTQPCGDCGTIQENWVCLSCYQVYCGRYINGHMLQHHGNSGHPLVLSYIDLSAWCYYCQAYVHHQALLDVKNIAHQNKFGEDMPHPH
Protocol: as §1

BRAF^V600E = biological target: T4, BRAF^V600E (Homo sapiens, UniProt P15056, V600E); experiment: BRAF V600E enzymatic activity, FRET-based Z'-Lyte kinase assay; assay type: biochemical
T4 construct: purchased Invitrogen
T4 sequence (P15056 whole entry V600E): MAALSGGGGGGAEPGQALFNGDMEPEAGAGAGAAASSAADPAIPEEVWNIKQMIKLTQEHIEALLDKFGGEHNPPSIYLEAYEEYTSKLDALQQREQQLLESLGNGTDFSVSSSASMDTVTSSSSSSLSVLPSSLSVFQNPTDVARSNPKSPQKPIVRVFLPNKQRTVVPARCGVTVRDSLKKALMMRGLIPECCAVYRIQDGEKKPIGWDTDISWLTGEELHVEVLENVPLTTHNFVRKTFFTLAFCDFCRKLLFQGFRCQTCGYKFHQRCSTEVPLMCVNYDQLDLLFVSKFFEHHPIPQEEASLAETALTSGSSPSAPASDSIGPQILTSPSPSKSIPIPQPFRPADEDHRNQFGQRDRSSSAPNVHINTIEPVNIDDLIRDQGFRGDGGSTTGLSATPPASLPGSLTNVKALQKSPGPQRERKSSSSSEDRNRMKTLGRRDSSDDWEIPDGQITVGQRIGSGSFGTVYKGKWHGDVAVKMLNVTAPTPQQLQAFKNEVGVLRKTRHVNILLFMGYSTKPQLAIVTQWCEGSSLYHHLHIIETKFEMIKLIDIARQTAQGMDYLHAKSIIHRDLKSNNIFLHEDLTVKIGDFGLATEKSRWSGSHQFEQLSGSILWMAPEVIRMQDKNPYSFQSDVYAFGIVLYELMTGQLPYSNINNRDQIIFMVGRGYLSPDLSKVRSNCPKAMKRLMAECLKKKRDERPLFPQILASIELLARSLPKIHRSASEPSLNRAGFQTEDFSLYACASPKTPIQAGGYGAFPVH
Protocol: (§2) The experiments were performed according to the instructions of the manufacturer. […] For each assay, 10 μl kinase reactions were added to 384-well plate, mixed thoroughly, and incubated for 1 hour at room temperature. Then, a 5 μl development solution was added to each well and the plate was incubated for another 1 h at room temperature. Then, a 5 μl stop reagent was loaded to stop the reaction. For the control setting, a 5 μl phospho-peptide solution instead of kinase/peptide mixture was used as 100% phosphorylation control. […] The plate was measured on an EnVision Multilabel Reader (Perkin-Elmer). Curve fitting and data presentations were performed using GraphPad Prism, version 5.0. Every experiment was repeated at least two times.

HCT116 cells = experiment: Antiproliferation CCK-8 assay, HCT116; assay type: cell-based; conditions: Homo sapiens, HCT-116; CCK-8, 72 h, HCT116 (wild-type BRAF); means of three independent experiments; read-out: Cellular IC50 HCT116
Protocol: (§3) HCT116 and HT-29 cells were obtained from the Shanghai Cell Bank (Type Culture Collection (TCC), Chinese Academy of Sciences) and cultured in DMEM (10–013-CVR, corning) supplemented with 10% fetal bovine serum (04-001-1A, BI), 1% penicillin/streptomycin (03-031-1B, BI).
(§4) The cells in the logarithmic phase were placed in 96-well plates (∼3000 cells/well) in a complete medium. After incubation overnight, the cells were exposed to the corresponding compounds or vehicle control at the indicated concentration for a further 72 h. Cell proliferation was evaluated using Cell Counting Kit 8 (CCK8, CK04, Dojindo Laboratories, Kumamoto, Japan). OD450 and OD650 were determined using a microplate reader. Absorbance rate (A) for each well was calculated as OD450 −OD650. […] Each IC50 value is expressed as mean ± SD. As is the absorbance rate of the test compound well, Ac is the absorbance rate of the well without either the cell or test compound, and Ab is the absorbance rate of the well with the cell and vehicle control.

BRAF (wild-type) [1] = experiment: wild-type BRAF enzymatic activity, Z'-Lyte kinase assay; assay type: biochemical; conditions: ratio of enzymatic IC50
Protocol: as §2

BRAF (wild-type) [2] = biological target: T5, BRAF (wild-type) (Homo sapiens, UniProt P15056); experiment: as above; assay type: biochemical; conditions: wild-type BRAF kinase; read-out: BRAF^wt enzymatic IC50
T5 construct: purchased Invitrogen
T5 sequence (P15056 whole entry): as the sequence (P15056 whole entry V600E) above, with E600V counted along it
Protocol: as §2

HT-29 cells = experiment: Antiproliferation CCK-8 assay, HT-29; assay type: cell-based; conditions: Homo sapiens; CCK-8, 72 h, HT-29 (BRAF^V600E); means of three independent experiments; read-out: Cellular IC50 HT-29
Protocol: as §3, §4

[3] = tested on: Ac-histone H3, Ac-α-tubulin, p-ERK in HCT116 cells; experiment: Western blot analysis of HDAC and RAF pathway in HCT116 cells; assay type: cell-based, human; conditions: 0.12-10 μM, 6 h; for phosphorylation of ERK (p-ERK): HCT116 cells (wild-type BRAF, K-RAS G13D); for acetylated histone H3 (Ac-histone H3) / acetylated α-tubulin (Ac-α-tubulin): HCT116 cells
Protocol: (§5) FIGURE 3 Characterization of dual inhibition of HDAC and RAF pathway. Western blot analysis of 14b in HCT116 cells (A) and in HT-29 cells (B). Cells were treated with 0 μM, 0.12 μM, 0.37 μM, 1.1 μM, 3.3 μM, and 10 μM of drugs and incubated for 6 h. The cell lysis was subjected to Western blot analysis.
(§6) The cells were treated with various concentrations of 14b for 6 h. Then, the cells were lysed using 1×SDS sample lysis buffer (CST recommended) with protease and phosphatase inhibitors. Cell lysates were loaded and electrophoresed onto 8–12% SDS-PAGE gel, and then the separated proteins were transferred to a PVDF film. The film was blocked with 5% BSA (Sigma-Aldrich, St. Louis, MO, United States) in a TBS solution containing 0.5% Tween-20 for 4 h at room temperature, then incubated with the corresponding primary antibody (1:1000–1:200) overnight at 4°C. After washing with TBST, HRP-conjugated secondary antibody was incubated for 2 h. The protein signals were visualized by the ECL Western Blotting Detection Kit (Thermo Scientific, Grand Island, NY, United States), and detected with Amersham Imager 600 system (GE, Boston, MA, United States).

[4] = tested on: Ac-histone H3, Ac-α-tubulin, p-ERK in HT-29 cells; experiment: Western blot analysis of HDAC and RAF pathway in HT-29 cells; assay type: cell-based, human; conditions: 0.12-10 μM, 6 h
Protocol: as §5, §6

SMILES | fold more potent than 14b against HDAC8 (HDAC8) [fold] | IC50 (HDAC8) [nM] | IC50 (HDAC1) [nM] | IC50 (HDAC6) [nM] | IC50 (BRAF^V600E) [nM] | IC50 (HCT116 cells) [nM] | selectivity of BRAF^V600E over wild-type BRAF (BRAF (wild-type) [1]) | IC50 (BRAF (wild-type) [2]) [nM] | IC50 (HT-29 cells) [nM] | phosphorylation of ERK (p-ERK) [3] | acetylated histone H3 (Ac-histone H3) [3] | acetylated α-tubulin (Ac-α-tubulin) [3] | acetylated histone H3 (Ac-histone H3) [4] | acetylated α-tubulin (Ac-α-tubulin) [4] | phosphorylation of ERK (p-ERK) [4] | also measured
O=C(CCCCCCNc1nccc(-c2sc(-c3ccccc3)nc2-c2cccc(NS(=O)(=O)c3c(F)cccc3F)c2F)n1)NO [14j, 7-{[4-(4-(3-(2,6-Difluorophenylsulfonamido)-2-Fluorophenyl)-2-Phenylthiazol-5-yl)Pyrimidin-2-yl]Amino}-N-Hydroxyheptanamide] | 3.4 | 876 | 15.6 | 140 | 5.14 | 1080 | slightly more potent against wild-type BARF | 3.86 | 950 | – | – | – | – | – | – | –
CC(C)(C)c1nc(-c2cccc(NS(=O)(=O)c3ccccc3)c2F)c(-c2ccnc(NCCCCCCC(=O)NO)n2)s1 [21c, 7-{[4-(2-(Tert-Butyl)-4-(2-Fluoro-3-(Phenylsulfonamido)Phenyl)Thiazol-5-yl)Pyrimidin-2-yl]Amino}-N-Hydroxyheptanamide] | 4.8 | 623 | 474 | 101 | 1.26 | 2060 | about 2 fold | 2.86 | 110 | – | – | – | – | – | – | –
CC(C)(C)c1nc(-c2cccc(NS(=O)(=O)c3c(F)cccc3F)c2F)c(-c2ccnc(N)n2)s1 [Dabrafenib, dabrafenib] | – | – | – | – | – | > 10000 | – | – | 210 | paradoxically induced | had little impact | had little impact | had little impact | had little impact | reduced | phosphorylation of ERK (p-ERK) ([3]; listed as dabrafenib): causes paradoxical activation of ERK; phosphorylation of ERK (p-ERK) ([4]; listed as dabrafenib): reduced the phosphorylation of ERK
O=C(CCCCCCC(=O)Nc1ccccc1)NO [Vorinostat, vorinostat] | – | – | – | – | – | – | – | – | – | had little impact | dose-dependently induced | dose-dependently induced | dose-dependently induced | dose-dependently induced | had little impact | acetylated histone H3 (Ac-histone H3) ([3]; listed as vorinostat): upregulated; acetylated α-tubulin (Ac-α-tubulin) ([3]; listed as vorinostat): upregulated; acetylated histone H3 (Ac-histone H3) ([4]; listed as vorinostat): upregulated; acetylated α-tubulin (Ac-α-tubulin) ([4]; listed as vorinostat): upregulated
